Reference: patent US12447171B2 (CELGENE QUANTICEL RESEARCH, INC., priority 2019, dated 2025)

Assays:
MOLM-13 xenograft model = test: Disseminated MOLM-13 xenograft survival study; type: in vivo, mice; conditions: for Median survival: MOLM-13, NOD/SCID mice, vehicle=19 days; for survival compared to vehicle alone: MOLM-13
Procedure: (§1) LEED models oral administration of AZA, while HELD models intravenous or subcutaneous administration of AZA.
The animals were fed ad libitum water (reverse osmosis, 1 ppm Cl), and NIH 31 Modified and Irradiated Lab Diet® consisting of 18.0% crude protein, 5.0% crude fat, and 5.0% crude fiber. The mice were housed on irradiated Enrich-o'cobs™ Laboratory Animal Bedding in static microisolators on a 12-hour light cycle at 20-22° C. (68-72° F.) and 40-60% humidity.
(§2) On each day of dosing, an appropriate amount of gilteritinib was dissolved in 0.5% methylcellulose in DI water to yield a dosing solution at 0.4 mg/mL. Each week, an appropriate amount of venetoclax was dissolved in 10% ethanol:30% PEG400:60% phosal 50 propylene glycol to yield a dosing solution at 10 mg/mL. […] Each test mouse received 5×10^6 MOLM-13 cells or 10^7 MV4-11 cells (0.2 mL cell suspension) by tail vein injection. Dosing was initiated three days after tumor cell inoculation, which was designated as Day 1 of the study. NOD/SCID mice (n=9-12/group) were randomized according to body weight and dosed. […] Vehicle was administered both IP and PO. The dosing volume for all treatments was 10 mL/kg, scaled to the weight of each individual animal.
(§3) Animals were monitored individually for an endpoint of moribundity due to progression of the leukemia. Full hind limb paralysis, severe ocular proptosis, or moribundity was considered sufficient for euthanasia due to tumor progression. Moribund animals were defined as sick animals unable to reach food and water. These deaths were classified as death on survival study. The time to endpoint (TTE), in days, was recorded for each mouse that died of its disease or was euthanized due to extensive tumor progression. […] An animal classified as having died from treatment-related (TR) causes was assigned a TTE value equal to the day of death. An animal classified as having died from non-treatment-related (NTR) causes, or used for sampling before endpoint, was excluded from TTE calculations and all further analyses. The median TTE value was calculated for each group. The median TTE of treated mice was expressed as a percentage of the median TTE of the control mice (% T/C), and the increase in life span (ILS) was calculated as: ILS=% T/C−100%, where T=median TTE treated, and C=median TTE control. Thus, if T=C, ILS=0%.
Animals were weighed daily on Days 1-5, then twice per week until the completion of the study. […] Individual body weight loss was monitored as per protocol and any animal that exceeded the limits for acceptable body weight loss was euthanized. Group mean body weight loss also was monitored as per protocol. Dosing was suspended in any group that exceeded the limits for acceptable mean body weight loss. If mean body weight recovered, then dosing may be resumed in that group, but at a lower dosage or less frequent dosing schedule. Acceptable toxicity for the maximum tolerated dose was defined as a group mean body-weight loss of less than 20% during the study and not more than one TR death among ten treated animals. […] A death was classified as NTR if there was no evidence that death was related to treatment side effects or tumor progression. Non-treatment-related deaths may be further characterized based on cause of death. A death may be classified as NTRa if it resulted from an accident or human error. A death may be classified as NTRu if the cause of death is unknown and there is no available evidence of death related to treatment side effects, metastasis, accident or human error, although death due to these etiologies cannot be excluded. Survival was analyzed by the Kaplan-Meier method, based on TTE values. The logrank (Mantel-Cox) and Gehan-Breslow-Wilcoxon tests determined the significance of the difference between the overall survival experiences (survival curves) of two groups, based on TTE values.
These experiments were repeated with a second FLT3-ITD cell line, MOLM-13.

MV4-11 xenograft models = test: Disseminated MV4-11 xenograft survival study; type: in vivo; conditions: MV4-11, NCG mice, vehicle=29.5
Procedure: as §1
as §2, with “NOD/SCID mice (n=9-12/group) were randomized according to body weight and dosed.” left out
as §3
Animals were weighed daily on Days 1-5, then twice per week until the completion of the study. […] Individual body weight loss was monitored as per protocol and any animal that exceeded the limits for acceptable body weight loss was euthanized. Group mean body weight loss also was monitored as per protocol. Dosing was suspended in any group that exceeded the limits for acceptable mean body weight loss. If mean body weight recovered, then dosing may be resumed in that group, but at a lower dosage or less frequent dosing schedule. […] Survival was analyzed by the Kaplan-Meier method, based on TTE values. The logrank (Mantel-Cox) and Gehan-Breslow-Wilcoxon tests determined the significance of the difference between the overall survival experiences (survival curves) of two groups, based on TTE values.

[1] = system: stearoyl-CoA desaturase (SCD); test: SCD expression (RNAseq, real-time PCR) in MV4-11 cells; type: cell-based
Procedure: After treatment, cells were recovered, washed once in PBS, and flash frozen as cell pellets. Cell pellets were sent to Canopy Biosciences for RNA extraction and library preparation and sequencing. RNA was extracted using the Qiagen RNeasy Mini Kit according to manufacturer's instructions. A modified protocol was used to preserve miRNA species. Total RNA Seq libraries were prepared using 200 ng of total RNA and the NEBNext Ultra II Directional Library prep kit. rRNA depletion was performed using an RNase-H based method (New England Biolabs, Ipswich, MA). MCL1 RNA levels in other cell lines were quantified by RNASeq using standard methods.
Libraries were multiplexed and sequenced using Illumina HiSeq. All gene counts were then imported into the R/Bioconductor package EdgeR and TMM normalization size factors were calculated to adjust for samples for differences in library size. Ribosomal genes and genes not expressed in the smallest group size minus one samples greater than one count-per-million were excluded from further analysis. Differential expression analysis was then performed to analyze for differences between conditions and the results were filtered for only those genes with Benjamini-Hochberg false-discovery rate adjusted p-values less than or equal to 0.05. Global perturbations in known Gene Ontology (GO) terms and KEGG pathways were detected using the R/Bioconductor package GAGE to test for changes in expression of the reported log 2 fold-changes reported by Limma in each term versus the background log 2 fold-changes of all genes found outside the respective term. […]
At this time, cells were recovered and RNA was extracted using Qiagen RNeasy kit according to manufacturer's instructions. […] Validated Taqman probes and Taqman Fast Advanced Master Mix was used with Viia 7 Real-Time PCR System (Invitrogen/ThermoFisher Scientific, Waltham, MA) to quantify transcripts of ATF3, SCD, and 18S mRNA.

Nc1ncn([C@@H]2O[C@H](CO)[C@@H](O)[C@H]2O)c(=O)n1 [5-azacytidine, 4-amino-1-B-D-ribofuranosyl-1,3,5-triazin-2(1H)-one]
Median survival (MOLM-13 xenograft model; HELD 5-azacytidine 3 mg/kg IP qd×5, alone or with midostaurin 100, gilteritinib 4 or venetoclax 100 mg/kg PO qd×21): 32 days | Median survival (MOLM-13 xenograft model; LEED 5-azacytidine 1 mg/kg IP qd×15, alone or with midostaurin 100, gilteritinib 4 or venetoclax 100 mg/kg PO qd×21): 36 days | survival compared to vehicle alone (MOLM-13 xenograft model; HELD 5-azacytidine 3 mg/kg IP qd×5, alone or in combination): statistically significantly increases in survival | survival compared to vehicle alone (MOLM-13 xenograft model; LEED 5-azacytidine 1 mg/kg IP qd×15, alone or in combination): statistically significantly increases in survival | Median survival (MV4-11 xenograft models; HELD 5-azacytidine 3 mg/kg qd×5, alone or with venetoclax or midostaurin 100 mg/kg qd×21): 35 | Median survival (MV4-11 xenograft models; LEED 5-azacytidine 1 mg/kg qd×5×3, alone or with venetoclax or midostaurin 100 mg/kg qd×21): 35 | SCD expression (real-time PCR) ([1]; MV4-11, 3 μM 5-azacytidine): decreased rapidly within 24 hours | SCD expression (real-time PCR) ([1]; MV4-11, low concentrations of 5-azacytidine, 24 hours): not affected | SCD expression decrease ([1]; RNAseq, MV4-11, 1 μM, 48 hours): 2.5 fold
